# Data reported in US20050288373A1, “Methods of treating various conditions by administration of sustained release L-arginine” (priority 2002, published 2005).
# Legend:
# [1] = tested on: triglycerides; experiment: Triglyceride levels pre- and post-treatment; format: in vivo, human; conditions: for No. of subjects outside normal range, triglycerides: 15 subjects
# [2] = tested on: total cholesterol; experiment: Change in total cholesterol levels; format: in vivo, human; conditions: resulting from treatment, 3 weeks
# Method: (§1) Endothelium-dependent vasodilation was assessed by brachial artery ultrasound using computer-assisted image analysis; ADMA and L-arginine plasma concentrations were determined by a validated HPLC method.
# (§2) In the study described in Example 15, the change in total cholesterol (TC), LDL cholesterol, HDL cholesterol, and triglycerides was analyzed pre- and post-treatment.
# [3] = tested on: HDL cholesterol; conditions: resulting from treatment, 3 weeks
# Method: as §1, §2
# [4] = tested on: LDL cholesterol; conditions: resulting from treatment, 3 weeks
# Method: as §1, §2
# [5] = resulting from treatment, 3 weeks
compound,measurement,setting,value
"CCC(C)(C)C(=O)O[C@H]1C[C@@H](C)C=C2C=C[C@H](C)[C@H](CC[C@@H]3C[C@@H](O)CC(=O)O3)[C@H]21 [Simvastatin, simvastatin]","Triglyceride Levels, Mean","[1]; after treatment, 3 weeks",140.2 mg/dL
same,"Triglyceride Levels, Median","[1]; after treatment, 3 weeks",134.0 mg/dL
same,"Triglyceride Levels, Min-Max","[1]; after treatment, 3 weeks",58 to 440 mg/dL
same,"No. of subjects outside normal range, triglycerides","[1]; after treatment, 3 weeks",1
same,"Triglyceride Levels, Mean",[1]; before treatment,165.1 mg/dL
same,"Triglyceride Levels, Median",[1]; before treatment,155.0 mg/dL
same,"Triglyceride Levels, Min-Max",[1]; before treatment,51 to 337 mg/dL
same,"No. of subjects outside normal range, triglycerides",[1]; before treatment,5
same,"Change in Triglyceride Levels, Mean",[1]; [5],-24.9 mg/dL
same,"Change in Triglyceride Levels, Median",[1]; [5],-38.0 mg/dL
same,"Change in Triglyceride Levels, Min-Max",[1]; [5],-143 to 205 mg/dL
same,"Change in Total Cholesterol Levels, Mean",[2],-76.3 mg/dL
same,"Change in Total Cholesterol Levels, Median",[2],-78.0 mg/dL
same,"Change in Total Cholesterol Levels, Min-Max",[2],-134 to -14 mg/dL
same,"Change in High Density Lipoprotein Cholesterol Levels, Mean",[3],1.2 mg/dL
same,"Change in High Density Lipoprotein Cholesterol Levels, Median",[3],0.0 mg/dL
same,"Change in High Density Lipoprotein Cholesterol Levels, Min-Max",[3],-7 to 20 mg/dL
same,"Change in Low Density Lipoprotein Cholesterol Levels, Mean",[4],-70.7 mg/dL
same,"Change in Low Density Lipoprotein Cholesterol Levels, Median",[4],-78.0 mg/dL
same,"Change in Low Density Lipoprotein Cholesterol Levels, Min-Max",[4],-121 to -20 mg/dL
